According to paper doi:10.1101/2023.11.24.568596v1 (biorxiv, 2023):

Columns and labels:
Settings in all cases: binder
MYT1 = molecular target: T1, MYT1 (Homo sapiens, UniProt Q99640)
T1 sequence (Q99640 1-499): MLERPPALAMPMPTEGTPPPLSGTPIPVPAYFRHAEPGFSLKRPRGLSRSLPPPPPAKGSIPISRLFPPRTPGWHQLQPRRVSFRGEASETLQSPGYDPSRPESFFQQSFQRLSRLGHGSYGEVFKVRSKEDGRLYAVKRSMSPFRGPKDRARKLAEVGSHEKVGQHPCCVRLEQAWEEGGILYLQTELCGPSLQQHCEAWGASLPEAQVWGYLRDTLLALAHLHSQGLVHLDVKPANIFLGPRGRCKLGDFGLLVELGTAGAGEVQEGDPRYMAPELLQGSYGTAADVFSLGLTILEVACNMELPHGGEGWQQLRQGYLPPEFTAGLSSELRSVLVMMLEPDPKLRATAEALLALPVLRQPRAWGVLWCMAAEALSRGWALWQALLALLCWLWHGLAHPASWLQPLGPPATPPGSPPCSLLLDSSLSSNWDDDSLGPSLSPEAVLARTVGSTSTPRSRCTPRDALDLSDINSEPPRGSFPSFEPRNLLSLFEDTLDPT

EphA7 = EphA7 (Homo sapiens, UniProt Q15375)
EphA7, sequence (Q15375 whole entry): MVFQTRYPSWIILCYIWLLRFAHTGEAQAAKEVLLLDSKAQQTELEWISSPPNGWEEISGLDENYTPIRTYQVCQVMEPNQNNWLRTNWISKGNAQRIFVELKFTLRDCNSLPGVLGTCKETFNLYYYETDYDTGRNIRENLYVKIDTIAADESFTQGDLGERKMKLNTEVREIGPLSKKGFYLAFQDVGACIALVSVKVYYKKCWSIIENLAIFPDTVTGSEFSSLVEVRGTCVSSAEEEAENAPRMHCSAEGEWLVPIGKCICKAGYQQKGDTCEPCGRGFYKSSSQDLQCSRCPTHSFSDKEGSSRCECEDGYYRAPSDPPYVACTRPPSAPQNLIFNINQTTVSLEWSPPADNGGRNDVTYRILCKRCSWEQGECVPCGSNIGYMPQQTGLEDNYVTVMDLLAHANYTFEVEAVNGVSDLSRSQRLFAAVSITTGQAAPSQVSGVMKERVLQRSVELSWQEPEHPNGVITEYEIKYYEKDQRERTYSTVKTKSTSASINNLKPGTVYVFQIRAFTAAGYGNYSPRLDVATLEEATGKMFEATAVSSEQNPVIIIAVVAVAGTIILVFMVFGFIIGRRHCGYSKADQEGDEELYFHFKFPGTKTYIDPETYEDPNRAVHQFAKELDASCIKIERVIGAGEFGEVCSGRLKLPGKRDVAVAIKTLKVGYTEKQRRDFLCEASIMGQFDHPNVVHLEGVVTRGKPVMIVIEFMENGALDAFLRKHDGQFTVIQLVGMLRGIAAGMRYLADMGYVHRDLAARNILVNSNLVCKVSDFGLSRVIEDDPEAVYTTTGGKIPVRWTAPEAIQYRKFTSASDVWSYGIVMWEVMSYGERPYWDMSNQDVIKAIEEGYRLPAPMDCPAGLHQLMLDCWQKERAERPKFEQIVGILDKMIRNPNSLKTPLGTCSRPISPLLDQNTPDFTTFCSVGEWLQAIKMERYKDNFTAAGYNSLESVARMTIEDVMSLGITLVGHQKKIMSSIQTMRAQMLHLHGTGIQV

EphA5 = EphA5 (Homo sapiens, UniProt P54756)
EphA5, sequence (P54756 whole entry): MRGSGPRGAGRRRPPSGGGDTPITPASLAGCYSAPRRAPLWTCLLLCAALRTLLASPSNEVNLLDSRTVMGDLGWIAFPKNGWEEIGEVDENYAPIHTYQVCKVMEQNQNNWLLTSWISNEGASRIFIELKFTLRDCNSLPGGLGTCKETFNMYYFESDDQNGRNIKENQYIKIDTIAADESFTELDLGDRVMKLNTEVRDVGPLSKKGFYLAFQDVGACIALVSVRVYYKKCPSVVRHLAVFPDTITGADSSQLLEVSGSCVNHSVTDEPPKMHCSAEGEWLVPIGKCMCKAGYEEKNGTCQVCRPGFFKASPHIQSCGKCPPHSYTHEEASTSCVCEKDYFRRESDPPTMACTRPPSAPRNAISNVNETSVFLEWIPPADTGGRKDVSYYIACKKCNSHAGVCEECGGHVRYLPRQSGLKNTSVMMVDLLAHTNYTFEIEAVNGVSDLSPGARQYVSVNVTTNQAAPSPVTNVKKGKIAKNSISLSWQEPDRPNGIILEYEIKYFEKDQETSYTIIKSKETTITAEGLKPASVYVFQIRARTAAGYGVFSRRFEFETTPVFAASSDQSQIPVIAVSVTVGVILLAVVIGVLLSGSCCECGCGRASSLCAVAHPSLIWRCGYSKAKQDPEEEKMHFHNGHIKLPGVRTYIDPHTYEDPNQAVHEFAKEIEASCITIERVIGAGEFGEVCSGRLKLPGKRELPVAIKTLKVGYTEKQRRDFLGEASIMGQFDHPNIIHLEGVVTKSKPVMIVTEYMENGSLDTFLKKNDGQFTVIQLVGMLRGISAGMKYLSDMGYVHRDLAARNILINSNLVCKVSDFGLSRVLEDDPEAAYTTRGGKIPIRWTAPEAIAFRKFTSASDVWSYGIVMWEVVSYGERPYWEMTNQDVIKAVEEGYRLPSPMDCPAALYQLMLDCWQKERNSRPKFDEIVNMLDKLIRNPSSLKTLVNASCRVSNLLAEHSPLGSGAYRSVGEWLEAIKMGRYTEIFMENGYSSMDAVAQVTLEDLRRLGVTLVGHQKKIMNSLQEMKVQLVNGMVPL

MAP2K4 = molecular target: T2, MAP2K4 (Homo sapiens, UniProt P45985)
T2 sequence (P45985 1-399): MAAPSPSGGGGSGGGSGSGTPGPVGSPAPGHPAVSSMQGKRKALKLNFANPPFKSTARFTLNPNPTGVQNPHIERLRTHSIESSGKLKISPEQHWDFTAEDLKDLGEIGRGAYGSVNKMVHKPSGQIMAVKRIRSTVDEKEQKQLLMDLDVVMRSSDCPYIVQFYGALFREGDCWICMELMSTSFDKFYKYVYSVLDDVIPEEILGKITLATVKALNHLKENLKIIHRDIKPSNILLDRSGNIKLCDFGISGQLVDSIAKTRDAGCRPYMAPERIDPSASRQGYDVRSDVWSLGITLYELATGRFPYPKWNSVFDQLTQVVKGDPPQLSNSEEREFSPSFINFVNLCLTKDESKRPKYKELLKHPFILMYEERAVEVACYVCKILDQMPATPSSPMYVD

NDR2 = NDR2 (Homo sapiens, UniProt Q9Y2H1)
NDR2, sequence (Q9Y2H1 whole entry): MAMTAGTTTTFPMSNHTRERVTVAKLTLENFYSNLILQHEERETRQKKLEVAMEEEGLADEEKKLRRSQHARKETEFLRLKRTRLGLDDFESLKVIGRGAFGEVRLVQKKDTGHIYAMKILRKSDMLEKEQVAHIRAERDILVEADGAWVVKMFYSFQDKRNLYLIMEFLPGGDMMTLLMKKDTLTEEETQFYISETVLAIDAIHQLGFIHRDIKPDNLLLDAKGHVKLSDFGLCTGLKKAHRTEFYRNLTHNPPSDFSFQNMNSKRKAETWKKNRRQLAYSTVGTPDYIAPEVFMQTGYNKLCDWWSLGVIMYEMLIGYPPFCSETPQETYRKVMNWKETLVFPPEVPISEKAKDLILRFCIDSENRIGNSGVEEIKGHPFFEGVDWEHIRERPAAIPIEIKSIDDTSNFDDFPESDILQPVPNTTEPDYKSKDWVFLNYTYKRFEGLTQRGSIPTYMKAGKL

PAK1 = PAK1 (Homo sapiens, UniProt Q13153)
PAK1, sequence (Q13153 whole entry): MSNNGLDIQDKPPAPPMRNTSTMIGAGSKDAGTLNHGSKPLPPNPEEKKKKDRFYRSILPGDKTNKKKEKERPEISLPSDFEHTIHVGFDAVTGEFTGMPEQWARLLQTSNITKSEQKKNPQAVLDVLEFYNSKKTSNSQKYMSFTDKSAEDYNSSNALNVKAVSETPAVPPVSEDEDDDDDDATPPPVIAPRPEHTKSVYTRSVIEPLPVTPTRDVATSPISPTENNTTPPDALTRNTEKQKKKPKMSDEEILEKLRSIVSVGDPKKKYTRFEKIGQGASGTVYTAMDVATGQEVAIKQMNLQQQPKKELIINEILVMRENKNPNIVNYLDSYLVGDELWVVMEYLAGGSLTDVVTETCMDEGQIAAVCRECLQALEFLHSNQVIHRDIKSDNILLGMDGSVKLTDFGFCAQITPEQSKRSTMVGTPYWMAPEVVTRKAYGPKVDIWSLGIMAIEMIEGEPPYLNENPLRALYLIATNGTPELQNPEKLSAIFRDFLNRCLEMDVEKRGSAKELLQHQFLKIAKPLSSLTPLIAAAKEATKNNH

ABL1 = ABL1 (Homo sapiens, UniProt P00519)
ABL1, sequence (P00519 whole entry): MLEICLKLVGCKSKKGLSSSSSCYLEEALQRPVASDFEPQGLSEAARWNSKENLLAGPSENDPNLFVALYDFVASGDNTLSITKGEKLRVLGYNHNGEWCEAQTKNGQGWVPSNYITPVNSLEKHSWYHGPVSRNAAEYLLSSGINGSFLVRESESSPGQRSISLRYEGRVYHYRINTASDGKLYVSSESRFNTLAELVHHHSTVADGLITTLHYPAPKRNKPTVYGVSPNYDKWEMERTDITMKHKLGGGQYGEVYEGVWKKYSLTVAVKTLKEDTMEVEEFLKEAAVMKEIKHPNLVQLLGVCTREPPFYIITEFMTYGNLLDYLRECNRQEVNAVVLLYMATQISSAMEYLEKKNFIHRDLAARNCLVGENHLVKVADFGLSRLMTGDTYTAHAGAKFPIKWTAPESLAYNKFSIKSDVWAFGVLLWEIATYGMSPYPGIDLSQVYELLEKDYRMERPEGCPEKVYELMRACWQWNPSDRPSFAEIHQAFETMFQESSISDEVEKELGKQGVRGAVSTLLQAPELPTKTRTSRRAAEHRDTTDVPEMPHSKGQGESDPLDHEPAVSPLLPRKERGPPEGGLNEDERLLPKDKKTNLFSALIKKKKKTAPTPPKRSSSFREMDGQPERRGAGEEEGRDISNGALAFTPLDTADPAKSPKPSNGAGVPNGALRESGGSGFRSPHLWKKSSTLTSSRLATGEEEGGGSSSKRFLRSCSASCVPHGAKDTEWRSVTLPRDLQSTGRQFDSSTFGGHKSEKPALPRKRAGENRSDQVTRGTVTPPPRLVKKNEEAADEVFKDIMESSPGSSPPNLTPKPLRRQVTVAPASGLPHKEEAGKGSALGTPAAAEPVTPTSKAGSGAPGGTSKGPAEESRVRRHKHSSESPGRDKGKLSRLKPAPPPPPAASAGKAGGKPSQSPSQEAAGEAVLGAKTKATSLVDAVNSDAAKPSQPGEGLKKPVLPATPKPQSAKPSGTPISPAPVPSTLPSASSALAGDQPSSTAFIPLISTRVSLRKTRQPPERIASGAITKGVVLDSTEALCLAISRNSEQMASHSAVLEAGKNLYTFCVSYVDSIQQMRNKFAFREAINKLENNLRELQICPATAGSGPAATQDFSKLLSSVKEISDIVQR

CHK2 = CHK2 (Homo sapiens, UniProt O96017)
CHK2, sequence (O96017 whole entry): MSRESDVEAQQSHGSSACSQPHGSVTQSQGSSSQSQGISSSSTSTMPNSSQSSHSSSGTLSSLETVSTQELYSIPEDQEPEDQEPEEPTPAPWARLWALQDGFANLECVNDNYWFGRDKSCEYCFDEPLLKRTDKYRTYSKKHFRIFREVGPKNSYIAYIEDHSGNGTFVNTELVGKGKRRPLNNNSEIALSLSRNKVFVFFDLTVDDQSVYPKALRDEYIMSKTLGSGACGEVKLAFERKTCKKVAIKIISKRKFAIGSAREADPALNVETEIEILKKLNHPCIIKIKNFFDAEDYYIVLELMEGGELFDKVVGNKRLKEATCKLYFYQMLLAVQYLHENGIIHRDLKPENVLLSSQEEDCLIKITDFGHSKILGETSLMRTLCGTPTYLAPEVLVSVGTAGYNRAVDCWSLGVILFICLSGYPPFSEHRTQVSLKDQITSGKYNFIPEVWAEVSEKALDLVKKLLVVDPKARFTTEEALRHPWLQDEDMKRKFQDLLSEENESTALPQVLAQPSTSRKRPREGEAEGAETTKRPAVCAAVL

MER = molecular target: T3, MER (Homo sapiens, UniProt Q12866)
T3 sequence (Q12866 1-999): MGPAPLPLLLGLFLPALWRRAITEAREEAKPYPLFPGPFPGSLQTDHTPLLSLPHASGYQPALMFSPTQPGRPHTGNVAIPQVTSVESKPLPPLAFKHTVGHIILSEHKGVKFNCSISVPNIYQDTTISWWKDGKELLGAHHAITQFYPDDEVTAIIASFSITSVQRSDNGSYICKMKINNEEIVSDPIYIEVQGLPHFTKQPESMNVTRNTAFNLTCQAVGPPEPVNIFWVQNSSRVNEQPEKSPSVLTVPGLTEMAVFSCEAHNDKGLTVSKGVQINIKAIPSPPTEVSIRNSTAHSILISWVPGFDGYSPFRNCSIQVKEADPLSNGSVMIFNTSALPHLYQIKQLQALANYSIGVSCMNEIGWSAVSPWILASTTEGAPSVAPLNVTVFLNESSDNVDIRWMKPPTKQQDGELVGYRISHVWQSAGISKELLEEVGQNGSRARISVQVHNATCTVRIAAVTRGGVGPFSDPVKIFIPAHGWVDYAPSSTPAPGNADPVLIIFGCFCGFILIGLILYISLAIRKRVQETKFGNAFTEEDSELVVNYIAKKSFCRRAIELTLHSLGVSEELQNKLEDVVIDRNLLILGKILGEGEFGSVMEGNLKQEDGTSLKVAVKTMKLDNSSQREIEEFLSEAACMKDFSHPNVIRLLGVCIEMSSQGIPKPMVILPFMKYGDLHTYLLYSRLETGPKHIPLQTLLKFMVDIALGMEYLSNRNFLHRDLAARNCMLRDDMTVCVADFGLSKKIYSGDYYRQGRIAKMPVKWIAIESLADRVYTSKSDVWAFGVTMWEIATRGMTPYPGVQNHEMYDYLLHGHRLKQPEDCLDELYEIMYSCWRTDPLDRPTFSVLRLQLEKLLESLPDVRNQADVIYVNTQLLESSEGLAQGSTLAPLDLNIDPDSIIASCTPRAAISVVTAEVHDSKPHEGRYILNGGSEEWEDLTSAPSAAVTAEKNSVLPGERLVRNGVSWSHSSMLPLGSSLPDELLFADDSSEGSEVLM

With Cc1cccc(-c2ccc(-c3cc4cnc(NCCCN5CCCC5=O)nc4n(CCCCN)c3=O)c(Cl)c2)n1 [compound 27, MR30] the “ΔTm MR30 (27)” value (MYT1) was -2.8 °C, the “ΔTm MR30 (27)” value (EphA7) was 1.7 °C and the “ΔTm MR30 (27)” value (EphA5) was 2.8 °C. For the same molecule, the “ΔTm MR30 (27)” value (MAP2K4) was 5.2 °C, the “ΔTm MR30 (27)” value (NDR2) was 1.5 °C and the “ΔTm MR30 (27)” value (PAK1) was 4.6 °C. For the same molecule, the “ΔTm MR30 (27)” value (ABL1) was 3.0 °C, the “ΔTm MR30 (27)” value (CHK2) was 2.5 °C and the “ΔTm MR30 (27)” value (MER) was 0.7 °C.
In the case of Cc1cccc(-c2ccc(-c3cc4cnc(Nc5cc(C(F)(F)F)ccc5C)nc4n(CCCCN)c3=O)c(Cl)c2)n1 [compound 28, 8-(4-Aminobutyl)-6-(2-chloro-4-(6-methylpyridin-2-yl)phenyl)-2-((2-methyl-5-(trifluoromethyl)phenyl)amino)pyrido[2,3-d]pyrimidin-7(8H)-one], the “ΔTm 28” value (MYT1) was -4.3 °C, the “ΔTm 28” value (EphA7) was 4.2 °C and the “ΔTm 28” value (EphA5) was 4.5 °C. The “ΔTm 28” value (MAP2K4) was 11.0 °C, the “ΔTm 28” value (NDR2) was 7.1 °C and the “ΔTm 28” value (PAK1) was 6.0 °C. The “ΔTm 28” value (ABL1) was 6.9 °C, the “ΔTm 28” value (CHK2) was 4.6 °C and the “ΔTm 28” value (MER) was 0.1 °C.
For Cc1cccc(-c2ccc(-c3cc4cnc(NCCCN5CCNCC5)nc4n(CCCCN)c3=O)c(Cl)c2)n1 [compound 29, 8-(4-Aminobutyl)-6-(2-chloro-4-(6-methylpyridin-2-yl)phenyl)-2-((3-(piperazin-1-yl)propyl)amino)pyrido[2,3-d]pyrimidin-7(8H)-one], the “ΔTm 29” value (MYT1) was -0.9 °C, the “ΔTm 29” value (EphA7) was 4.1 °C and the “ΔTm 29” value (EphA5) was 2.7 °C. The “ΔTm 29” value (MAP2K4) was 3.5 °C, the “ΔTm 29” value (NDR2) was 4.9 °C and the “ΔTm 29” value (PAK1) was 7.1 °C. For the same molecule, the “ΔTm 29” value (ABL1) was 4.0 °C, the “ΔTm 29” value (CHK2) was 2.4 °C and the “ΔTm 29” value (MER) was 1.0 °C.
Cc1cccc(-c2ccc(-c3cc4cnc(Nc5ccc(CCCO)cc5)nc4n(CCCCN)c3=O)c(Cl)c2)n1 [compound 30, 8-(4-Aminobutyl)-6-(2-chloro-4-(6-methylpyridin-2-yl)phenyl)-2-((4-(3-hydroxypropyl)phenyl)amino)pyrido[2,3-d]pyrimidin-7(8H)-one] was tested, and the “ΔTm 30” value (MYT1) was -2.8 °C, the “ΔTm 30” value (EphA7) was 6.4 °C and the “ΔTm 30” value (EphA5) was 6.6 °C. The “ΔTm 30” value (MAP2K4) was 9.7 °C, the “ΔTm 30” value (NDR2) was 10.7 °C and the “ΔTm 30” value (PAK1) was 10.7 °C. For the same molecule, the “ΔTm 30” value (ABL1) was 10.3 °C, the “ΔTm 30” value (CHK2) was 10.4 °C and the “ΔTm 30” value (MER) was 3.1 °C.
With Cc1cccc(-c2ccc(-c3cc4cnc(Nc5ccc(O)cc5)nc4n(CCCCN)c3=O)c(Cl)c2)n1 [compound 31, 8-(4-Aminobutyl)-6-(2-chloro-4-(6-methylpyridin-2-yl)phenyl)-2-((4-hydroxyphenyl)amino) pyrido[2,3-d]pyrimidin-7(8H)-one] the “ΔTm 31” value (MYT1) was -2.3 °C, the “ΔTm 31” value (EphA7) was 5.1 °C and the “ΔTm 31” value (EphA5) was 6.2 °C. The “ΔTm 31” value (MAP2K4) was 10.8 °C, the “ΔTm 31” value (NDR2) was 9.9 °C and the “ΔTm 31” value (PAK1) was 10.6 °C. The “ΔTm 31” value (ABL1) was 10.6 °C, the “ΔTm 31” value (CHK2) was 11.2 °C and the “ΔTm 31” value (MER) was 3.3 °C.
With Cc1cccc(-c2ccc(-c3cc4cnc(Nc5ccc(C)c(O)c5)nc4n(CCCCN)c3=O)c(Cl)c2)n1 [compound 32, 8-(4-Aminobutyl)-6-(2-chloro-4-(6-methylpyridin-2-yl)phenyl)-2-((3-hydroxy-4-methylphenyl)amino)pyrido[2,3-d]pyrimidin-7(8H)-one] the “ΔTm 32” value (MYT1) was -2.6 °C, the “ΔTm 32” value (EphA7) was 5.4 °C and the “ΔTm 32” value (EphA5) was 6.6 °C. For the same molecule, the “ΔTm 32” value (MAP2K4) was 10.8 °C, the “ΔTm 32” value (NDR2) was 10.1 °C and the “ΔTm 32” value (PAK1) was 10.4 °C. The “ΔTm 32” value (ABL1) was 10.8 °C, the “ΔTm 32” value (CHK2) was 11.0 °C and the “ΔTm 32” value (MER) was 2.8 °C.
